Source: PubChem BioAssay (NCI)
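Protocol summary: plate cells (96-well), add compound at 5 concentrations, incubate 48 h, interpolate endpoints linearly. At the TGI there is no net growth.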

Tests used:
Assay in all cases: growth of human tumour cells (NCI), 48 h
SNB-19 CNS = system: SNB-19 CNS
IGROV1 ovarian = system: IGROV1 ovarian
HCT-116 colon = system: HCT-116 colon
PC-3 prostate = system: PC-3 prostate
CAKI-1 renal = system: CAKI-1 renal
A498 renal = system: A498 renal
HOP-92 NSCLC = system: HOP-92 NSCLC
HCT-15 colon = system: HCT-15 colon
MOLT-4 leukemia = system: MOLT-4 leukemia
SF-295 CNS = system: SF-295 CNS
OVCAR-4 ovarian = system: OVCAR-4 ovarian
SK-MEL-2 melanoma = system: SK-MEL-2 melanoma
HOP-62 NSCLC = system: HOP-62 NSCLC
COLO 205 colon = system: COLO 205 colon
HCC-2998 colon = system: HCC-2998 colon
RPMI-8226 leukemia = system: RPMI-8226 leukemia
K-562 leukemia = system: K-562 leukemia
SNB-75 CNS = system: SNB-75 CNS
MDA-MB-231 breast = system: MDA-MB-231 breast
DU-145 prostate = system: DU-145 prostate
MALME-3M melanoma = system: MALME-3M melanoma
NCI-H23 lung = system: NCI-H23 lung
OVCAR-3 ovarian = system: OVCAR-3 ovarian
OVCAR-5 ovarian = system: OVCAR-5 ovarian
EKVX NSCLC = system: EKVX NSCLC
M14 melanoma = system: M14 melanoma
A549 NSCLC = system: A549 NSCLC
TK-10 renal = system: TK-10 renal
RXF 393 renal = system: RXF 393 renal
BT-549 breast = system: BT-549 breast
MCF7 breast = system: MCF7 breast
NCI-H522 lung = system: NCI-H522 lung
HS 578T breast = system: HS 578T breast
MDA-N = system: MDA-N
U251 CNS = system: U251 CNS
ACHN renal = system: ACHN renal
SK-MEL-5 melanoma = system: SK-MEL-5 melanoma
NCI-H460 lung = system: NCI-H460 lung
SK-MEL-28 melanoma = system: SK-MEL-28 melanoma
SK-OV-3 ovarian = system: SK-OV-3 ovarian
SF-268 CNS = system: SF-268 CNS
UACC-62 melanoma = system: UACC-62 melanoma
NCI/ADR-RES ovarian = system: NCI/ADR-RES ovarian
KM12 colon = system: KM12 colon
UACC-257 melanoma = system: UACC-257 melanoma
MDA-MB-435 = system: MDA-MB-435
UO-31 renal = system: UO-31 renal
OVCAR-8 ovarian = system: OVCAR-8 ovarian
SN12C renal = system: SN12C renal
SW-620 colon = system: SW-620 colon
LOX IMVI melanoma = system: LOX IMVI melanoma
T-47D breast = system: T-47D breast
786-0 renal = system: 786-0 renal
HT29 colon = system: HT29 colon
NCI-H226 lung = system: NCI-H226 lung
HL-60(TB) leukemia = system: HL-60(TB) leukemia
SR leukemia = system: SR leukemia
SF-539 CNS = system: SF-539 CNS
CCRF-CEM leukemia = system: CCRF-CEM leukemia

Measured: TGI

CCOP(=Nc1ccc(N(C)C)cc1)(OCC)OCC
not listed: SN12C renal | SW-620 colon | LOX IMVI melanoma | T-47D breast | 786-0 renal | HT29 colon | NCI-H226 lung | HL-60(TB) leukemia | SR leukemia | SF-539 CNS | CCRF-CEM leukemia
> 100 µM: all other assays above

Cc1nc2ccc(Br)cc2c(=O)n1-c1nnc(C(C)(C)C)s1
4.45 µM: UO-31 renal
not listed: A498 renal | MALME-3M melanoma | BT-549 breast
> 10 µM: all other assays above
